In patent US20210332139A1, “MODULATION OF LEUKOCYTE ACTIVITY IN TREATMENT OF NEUROINFLAMMATORY DEGENERATIVE DISEASE” (Leuvas Therapeutics, priority 2013, published 2021):
Where “and” joins values, the source holds several entries; their conditions need not be identical. Equal entries are not always repeated.

Experiments:
Type in all cases: cell-based
LFA-1 = LFA-1 affinity state in human neutrophils (conformer-specific antibodies, cytofluorimetry); settings: 20 μM, 10 s, mean fluorescence intensity, ctrl = 1
Source text: Neutrophil arrest is rapidly triggered by chemokines or other chemoattractants and is mediated by the binding of LFA-1 integrin to its vascular ligand ICAM-1. Ligation of specific heterotrimeric GPCRs by chemokines induces integrins to undergo a dramatic transition from a bent low-affinity conformation to extended intermediate- and high-affinity conformations, which leads to opening of the ligand-binding pocket. We hypothesized that Aβ may trigger intermediate and/or high affinity state of LFA-1 integrin and studied the effect of Aβ1-42 oligomers on human LFA-1 affinity using KIM127 and 327A conformer-specific antibodies for intermediate- and high-affinity state respectively.
The cells were stimulated for 10 s with 0.5 μmol/L of CXCL12, 0.1 μM fMLP, 20 μM Aβ1-42, or 20 μM Aβ42-1 under stirring at 37° C. After rapid washing, cells were stained with FITC-conjugated secondary polyclonal antibody and analyzed by cytofluorimetric quantification. Data are mean fluorescence intensity +/−SD from three independent experiments.

human neutrophils [1] = experiment: Isoluminol chemiluminescence ROS assay, human neutrophils; settings: human neutrophils on fibrinogen, mean+/−SD
Protocol: One of the mechanisms of neuronal damage by beta-amyloid in Alzheimer's disease is the generation of reactive oxygen species (ROS). We determined whether Aβ1-42 oligomers induce ROS production in neutrophils by using a chemiluminescence assay.
(§1) Isoluminol-based chemiluminescence assays were performed in HGCa in the presence of horseradish peroxidase (HRP) and isoluminol (both from Sigma-Aldrich) in a temperature-controlled Multilabel Count Victor X5 (Perkin Elmer). Assays were run in dark 96 well plates precoated with 250 μg/ml human fibrinogen in HGCa containing (final concentration): 100 μM isoluminol and 8 U/ml HRP. After addition of 1×10^5 human neutrophils or 7.5×10^5 mouse neutrophils, plates were left at 37° C. for 5-10 min and the reaction started by addition of the stimulus. Light emission was recorded every minute.
(§2) We used the chemotactic peptide fMLP as positive control. […] Data are mean+/−SD for three independent experiments.

mouse neutrophils [2] = experiment: Isoluminol chemiluminescence ROS assay, mouse neutrophils; settings: mean+/−SD
Protocol: as §1, §2
Data are mean+/−SD counts per second.

lymphocytes = experiment: Rapid adhesion in lymphocytes; settings: lymphocytes lack fMLP receptors, result in words
Protocol: It is known that one of the receptors for Aβ is the receptor for fMLP, formylpeptide chemotactic receptor (FPR). To evaluate the contribution of this GPCR receptor on Aβ-dependent neutrophil adhesion, we inhibited its function using boc-MLF, a formyl-peptide chemotactic receptor antagonist. Human neutrophils were incubated for 2 minutes with buffer (control) or with oligomeric Aβ. 0.1 μM fMLP was used as a positive control. Values are expressed as the mean counts of bound cells in 0.2 mm^2 from three independent experiments in duplicate. Error bars represent SD. […] To exclude the possibility that rapid adhesion triggering was a consequence of a generic plasma membrane alteration due to the lipophilic nature of Aβ, we evaluated rapid adhesion in lymphocytes, which are known to lack fMLP receptors.

neutrophils = experiment: Rapid adhesion of neutrophils, soluble versus fibrillary Aβ1-42; settings: mean+/−SD
Source text: Although two-times less efficient than the soluble form, fibrillary Aβ triggered a significant increase of rapid neutrophil adhesion on both ICAM-1 and fibrinogen (Table 8; data are expressed as the mean+/−SD of bound cells in 0.2 mm^2 from three independent experiments made in duplicate).

mouse neutrophils [3] = experiment: Rapid adhesion of mouse neutrophils to fibrinogen and ICAM-1; settings: mean+/−SD
Source text: (§3) All data are expressed as the mean+/−SD of bound cells in 0.2 mm^2 from three independent experiments made in duplicate.

human primary PMNs = experiment: Static adhesion of human primary PMNs to ICAM-1 with signaling inhibitors; settings: 10 μM Aβ, 1 min; listed as Aβ oligo
Protocol: As a model system, human primary PMNs were isolated form healthy donors stimulated to very rapid adhesion to purified human ICAM-1, ligand for the β2 integrins LFA-1 and Maci. fMLP (the classical chemoattractant) was the positive control. […] PMNs were treated for 30 min. with different concentrations of inhibitors followed by stimulation for 1 min with 50 nM fMLP or with 10 μM Aβ. The number of adherent cells was quantified by computer-assisted evaluation. Statistical analysis was SD.

human neutrophils [4] = experiment: Rapid adhesion of human neutrophils to fibrinogen and ICAM-1; settings: mean+/−SD
Source text: as §3

Abeta 1-42: soluble oligomeric amyloid-beta 1-42 peptide used as stimulus
327A (high-affinity state of LFA-1) (LFA-1): 3.29 ± 0.44 | KIM127 (intermediate-affinity state of LFA-1) (LFA-1): 2.54 ± 0.12 | ROS generation (chemiluminescence) (human neutrophils [1]; 1 min): 558 ± 112 | ROS generation (chemiluminescence) (human neutrophils [1]; 2 min): 540 ± 106 | ROS generation (chemiluminescence) (human neutrophils [1]; 3 min): 358 ± 132 | ROS generation (chemiluminescence) (human neutrophils [1]; 4 min): 235 ± 61 | ROS generation (chemiluminescence) (human neutrophils [1]; 5 min): 199 ± 76 | ROS generation (chemiluminescence) (mouse neutrophils [2]; 1 min): 226 ± 34 counts per second | ROS generation (chemiluminescence) (mouse neutrophils [2]; 2 min): 103 ± 17 counts per second | Adhesion to fibrinogen or to ICAM-1 in lymphocytes (lymphocytes): did not induce adhesion | Rapid adhesion to Fibrinogen (neutrophils; 15 μM): 180.7 ± 30.7 bound cells in 0.2 mm^2 | Rapid adhesion to ICAM-1 (neutrophils; 15 μM): 480.7 ± 61.7 bound cells in 0.2 mm^2 | Rapid adhesion to Fibrinogen (neutrophils; 30 μM): 419.2 ± 30.7 bound cells in 0.2 mm^2 | Rapid adhesion to ICAM-1 (neutrophils; 30 μM): 738.5 ± 29.3 bound cells in 0.2 mm^2 | Rapid adhesion to Fibrinogen (mouse neutrophils [3]; 5 μM): 37.13 ± 3.25 bound cells in 0.2 mm^2 | Rapid adhesion to ICAM-1 (mouse neutrophils [3]; 5 μM): 149.9 ± 28 bound cells in 0.2 mm^2 | Rapid adhesion to Fibrinogen (mouse neutrophils [3]; 10 μM): 44.75 ± 3.68 bound cells in 0.2 mm^2 | Rapid adhesion to ICAM-1 (mouse neutrophils [3]; 10 μM): 201.9 ± 14.14 bound cells in 0.2 mm^2 | Rapid adhesion to Fibrinogen (mouse neutrophils [3]; 20 μM): 88.75 ± 7.72 bound cells in 0.2 mm^2 | Rapid adhesion to ICAM-1 (mouse neutrophils [3]; 20 μM): 285.3 ± 12.5 bound cells in 0.2 mm^2 | Rapid adhesion to Fibrinogen (mouse neutrophils [3]; Abeta 1 μM): 8 ± 2.42 bound cells in 0.2 mm^2 | Rapid adhesion to ICAM-1 (mouse neutrophils [3]; Abeta 1 μM): 27.42 ± 3.59 bound cells in 0.2 mm^2 | Adherent hPMNs to ICAM-1, Aβ oligo, Mean, Control (no inhibitor) (human primary PMNs): 464.0 and 500.8 and 464.5 and 455.0 and 475.5 and 470.7 | Rapid adhesion to Fibrinogen (human neutrophils [4]; 1 μM): 108.0 ± 26.1 bound cells in 0.2 mm^2 | Rapid adhesion to ICAM-1 (human neutrophils [4]; 1 μM): 156.5 ± 40.9 bound cells in 0.2 mm^2 | Rapid adhesion to Fibrinogen (human neutrophils [4]; 5 μM): 200.9 ± 48.7 bound cells in 0.2 mm^2 | Rapid adhesion to ICAM-1 (human neutrophils [4]; 5 μM): 184.0 ± 55.4 bound cells in 0.2 mm^2 | Rapid adhesion to Fibrinogen (human neutrophils [4]; 10 μM): 285.2 ± 38.9 bound cells in 0.2 mm^2 | Rapid adhesion to ICAM-1 (human neutrophils [4]; 10 μM): 229.2 ± 43.4 bound cells in 0.2 mm^2 | Rapid adhesion to Fibrinogen (human neutrophils [4]; 20 μM): 449.1 ± 34.0 bound cells in 0.2 mm^2 | Rapid adhesion to ICAM-1 (human neutrophils [4]; 20 μM): 281.0 ± 30.7 bound cells in 0.2 mm^2
